Laboratory results from patent US11241475B2, “Preventive and/or therapeutic agent for osteogenesis imperfecta and other diseases” (Pharma Foods International Co., Ltd., priority 2016, dated 2022).
No end group written: not given here.

Tests used:
[1] = Digestion test using artificial intestinal juice (Example 11); format: in vitro ADME; conditions: 10 mg in 1 mL, pancreatin, pH 6.8, 37° C., 120 minutes and overnight, HPLC; FIG. 36
Procedure: Ten milligrams of the synthetic peptide No. 1 was dissolved in 1 mL of artificial intestinal juice (0.34% KH2PO4, 0.36% Na2HPO4, 1% pancreatin, adjusted to pH 6.8), and the mixture was allowed to react under shaking at 37° C. Samples were collected before the reaction, 120 minutes after the reaction and after overnight reaction, and subjected to HPLC [column: ODS column (size: diameter 46 mm×500 mm, SHIMADZU); mobile phase: (A) 0.05% TFA, (B) 90% acetonitrile/0.05% TFA; gradient: 2% B (0 min), 20% B (50 min), 100% B (50.1 min), 100% B (55 min); detection: UV 215 nm] to examine whether the synthetic peptide No. 1 was decomposed by the intestinal juice (resistance to the intestinal juice).

[2] = Digestion test using artificial gastric juice (Example 11); format: in vitro ADME; conditions: 10 mg in 1 mL, pepsin, pH 3.0, 37° C., 60 and 120 minutes, HPLC; FIG. 35
Procedure: A test using artificial gastric juice was performed on the synthetic peptide No. 1. Ten milligrams of the synthetic peptide No. 1 was dissolved in 1 mL of artificial gastric juice (0.2% NaCl, 0.32% pepsin, 2.4% diluted hydrochloric acid, adjusted to pH 3.0), and the mixture was allowed to react under shaking at 37° C. Samples were collected before the reaction and 60 and 120 minutes after the reaction, and subjected to HPLC [column: ODS column (size: diameter 46 mm×500 mm, SHIMADZU); mobile phase: (A) 0.05% TFA, (B) 90% acetonitrile/0.05% TFA; gradient: 2% B (0 min), 20% B (50 min), 100% B (50.1 min), 100% B (55 min); detection: UV 215 nm] to examine whether the synthetic peptide No. 1 was decomposed by the gastric juice (resistance to the gastric juice).

[3] = Effect on body weight (Example 7); format: in vivo; conditions: rats, days 1, 3, 5 and 7; peptide 1, 10 or 100 mg/kg/day oral, hGH 500 μg/kg/day subcutaneous; FIG. 24
Procedure: The synthetic peptide No. 1 or water for injection (control) was administered to male Crlj:WI rats at the age of four weeks by oral gavage using a gastric tube once a day for seven days (n=10 in each group). The dosage of the synthetic peptide was 1, 10 or 100 mg/kg/day. As a positive control, human growth hormone (hGH) (Norditropin, Japan Standard Commodity Classification Number: 872412) was subcutaneously administered at 500 μg/kg/day once a day for seven days. The body weight was measured on days 1, 3, 5 and 7 of administration.

VNPESEEE [synthetic peptide No. 1, Val-Asn-Pro-Glu-Ser-Glu-Glu-Glu]
decomposition by artificial intestinal juice (resistance to the intestinal juice) [1]: totally decomposed into a peptide having the sequence of the synthetic peptide No. 2
decomposition by artificial gastric juice (resistance to the gastric juice) [2]: not decomposed
change in the body weight [3]: No significant change
